Read-outs that look alike come from different tables or passages of the source.
What was measured:
[1] = Human liver microsomes incubations: half-life and intrinsic clearance; format: in vitro ADME
Protocol: For the generation of Phase I metabolites: tested compounds, at a 10 μM concentration (1 μL of 5 mM DMSO stock solution), were incubated with HLM (1 mg protein/mL), Vivid® regenerating system (5 μL) and NADPH (1mM) in ABIC 50 mM buffer pH 7.4, for a total incubation volume of 500 μL. Incubations were run in duplicate, at 37 °C. Aliquots were collected at 0, 5, 10, 20, 30, 40, 50, 60, 75, 90, 120, 180 min and reactions were stopped by adding and ice-cold solution of reserpine (2.5 μM) in acetonitrile. Additional aliquots were taken at 0 and 120 min and subsequently treated with L-lysine (100 µM) and sodium cyanoborohydride (10 µM) or glutathione (100 µM). Following centrifugation (10,000 rpm, 15 min, RT), the clear supernatants were collected and analyzed LC-ESI-HRMS/MS. Control incubations were conducted in the same conditions: (1) using DMSO as negative control, in absence of the test drug; (2) using heat-denatured HLM (90 °C, 15 min); (3) using nevirapine, as a positive control, instead of the tested compound; and (4) in absence of NADPH co-factor.
The in vitro depletion half-lives of tested compounds t1/2 were calculated using Equation (1), assuming that testing compounds follow a first-order kinetic trend. The “slope” was determined from linear fitting of the natural logarithm of the concentration of drug remaining plotted against time:(1) t1/2=ln2/slope
The intrinsic clearance in HLM (CLint, HLM) was calculated using Equation (2):(2) CLint HLM =ln2/ t1/2 x mL incubation/mg microsomes x 45 mg microsomes/g liver x 26 g liver/Kg b.w.

[2] = tested on: HCT116 p53+/+ cells; test: Antiproliferative activity, sulforhodamine B (SRB) assay; format: cell-based, human
Protocol: (§1) Tumor cells were cultured in RPMI-1640 with UltraGlutamine (Lonza, VWR), supplemented with 10% fetal bovine serum (FBS; Gibco, Alfagene) and maintained in a humidified incubator at 37 °C with 5% CO2. Cell lines were seeded in 96-well plates at the cells/well density of 5.0 × 10^3.

[3] = tested on: HCT116 p53−/− cells; test: as above; format: cell-based, human; details: 48 h treatment, mean ± SEM of 3–5 independent experiments, read-out: HCT116 p53−/− GI50
Protocol: as §1

[4] = In vitro reactions with bionucleophiles; details: with or without enzymatic conditions (S9 rat liver incubations)
Protocol: To a solution of compound 13d in acetonitrile (1.00 eq., 10.1 mg in 400 µL, 5.04 × 10^−2 M) reduced glutathione (4.00 eq. 25.2 mg, 82.00 µmol) dissolved in 400 µL of ABIC buffer 50 mM pH 7.4 was added. The reaction mixture was incubated for 24 h at 37 °C and monitored by LC-ESI-HRMS/MS.
To a solution of compound 13k in acetonitrile (1.00 eq., 4.3 mg in 200 µL, 3.92 × 10^−2 M) reduced glutathione (4.00 eq. 9.64 mg, 31.36 µmol) dissolved in 200 µL of ABIC buffer 50 mM pH 7.4 was added. The reaction mixture was incubated for 24 h at 37 °C and monitored by LC-ESI-HRMS/MS.
SLMP53-1_M5 (1.00 eq., 2.1 mg, dissolved in 150 µL of ACN) was added to a L-lysine (2 eq.) solution in 50 mM ABIC buffer pH 7.4. Following incubation for 24 h at 37 °C a solution of cyanoborohydride (2 eq) was added. The mixture was analyzed by LC-ESI(+)-HRMS/MS.

CCCn1c(Br)c(C[C@H]2CO[C@]3(c4ccccc4)c4ccccc4C(=O)N23)c2ccccc21 [Compound 13d, (3S, 9bR)-3-((2-bromo-1-propyl-1H-indol-3-yl)methyl)-9b-phenyl-2,3-dihydrooxazolo[2,3-a]isoindol-5(9bH)-one]
Intrinsic Clearance ([1]; HLM, calculated from half-life (Equation 2)): 5.5 mL/min/kg | clearance classification ([1]; HLM, classification after ref 32): low clearance | half-life at 10 μM ([1]; human, liver microsomes, pH 7.4, HLM 1 mg protein/mL, 10 μM, NADPH, 37 °C): 1.53 h | more active than SLMP53-2 (7) ([2]; HCT116 p53+/+): 2 fold | S.I. (selectivity index) ([2]; HCT116 p53−/− versus HCT116 p53+/+): 1.9 | GI50 ([2]; Homo sapiens, HCT-116, 48 h treatment, mean ± SEM of 3–5 independent experiments, read-out: HCT116 p53+/+ GI50): 4 ± 0.5 µM | GI50 [3]: 7.45 ± 0.95 µM | GI50 ([3]; Homo sapiens, HCT-116, 48 h): 7.5 µM | products of addition of GSH with concomitant loss of bromine [4]: no products compatible with the addition of GSH, and the concomitant loss of bromine, were detected
